Data taken from patent US20100093808A1, “SALT AND POLYMORPH OF A DPP-IV INHIBITOR” (priority 2005, published 2010).
Counter-ions that a name gives are not always drawn.

Biological target: T1, human DPP-IV (Homo sapiens, UniProt P27487)
T1 construct: made in house; host or cells: Pichia pastoris (purified from the culture medium)
Experiment: DPP-IV activity assay (colorimetric / fluorometric)
Format: biochemical
Settings: natural human DPP-IV from human plasma pool or recombinant human DPP-IV; 37° C., pH 7.8
Procedure: Activity of DPP-IV inhibitors are tested with natural human DPP-IV derived from a human plasma pool or with recombinant human DPP-IV. Human citrate plasma from different donors is pooled, filtered through a 0.2 micron membrane under sterile conditions and aliquots of 1 mL are shock frozen and stored at […]. until used. In the colorimetric DPP-IV assay 5 to 10 μL human plasma and in the fluorometric assay 1.0 μL of human plasma in a total assay volume of 100 μL is used as an enzyme source. The cDNA of the human DPP-IV sequence of amino acid 31- to 766, restricted for the N-terminus and the transmembrane domain, is cloned into pichia pastoris. […]
In the colorimetric assay H-Ala-Pro-pNA.HCl (Bachem L-1115) is used as a substrate. […] Fluorescence is detected in a Perkin Elmer Luminescence Spectrometer LS 50B at an excitation wavelength of 400 nm and an emission wavelength of 505 nm continuously every 15 seconds for 10 to 30 minutes. Initial rate constants are calculated by best fit linear regression. The absorption of pNA liberated from the colorimetric substrate is detected in a Packard SpectraCount at […] continuously every 2 minutes for 30 to 120 minutes. Initial rate constants are calculated by best fit linear regression. […]
IC50 determinations of test compounds are calculated by non-linear best fit regression of the DPP-IV inhibition of at least 5 different compound concentrations. […]

T1 sequence (P27487 31-766): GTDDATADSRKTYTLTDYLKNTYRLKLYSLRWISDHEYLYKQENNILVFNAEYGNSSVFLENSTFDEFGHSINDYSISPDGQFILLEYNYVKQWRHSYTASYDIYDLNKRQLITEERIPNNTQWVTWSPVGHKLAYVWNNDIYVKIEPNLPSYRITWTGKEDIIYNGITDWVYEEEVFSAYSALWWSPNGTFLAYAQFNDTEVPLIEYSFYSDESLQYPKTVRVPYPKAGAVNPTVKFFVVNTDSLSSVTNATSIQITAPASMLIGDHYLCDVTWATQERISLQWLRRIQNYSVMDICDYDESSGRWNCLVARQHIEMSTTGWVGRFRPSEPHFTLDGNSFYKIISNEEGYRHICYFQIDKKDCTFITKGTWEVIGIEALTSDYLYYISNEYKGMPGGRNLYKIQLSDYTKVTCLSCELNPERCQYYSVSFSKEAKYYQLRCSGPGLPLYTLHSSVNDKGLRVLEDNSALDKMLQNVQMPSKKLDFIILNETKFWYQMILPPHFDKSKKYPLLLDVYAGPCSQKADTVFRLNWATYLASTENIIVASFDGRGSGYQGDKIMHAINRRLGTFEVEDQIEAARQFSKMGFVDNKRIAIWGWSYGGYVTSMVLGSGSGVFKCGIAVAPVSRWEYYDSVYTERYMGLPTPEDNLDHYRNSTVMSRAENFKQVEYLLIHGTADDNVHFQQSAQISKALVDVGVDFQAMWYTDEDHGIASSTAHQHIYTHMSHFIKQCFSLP

SMILES: CC(C)(CCn1cnc(-c2cccnc2)c1)NCC(=O)N1CCC[C@H]1C#N [(2S)-1-{[1,1-Dimethyl-3-(4-pyridin-3-yl-imidazol-1-yl)-propylamino]-acetyl}-pyrrolidine-2-carbonitrile fumarate]
- IC50: 21.2 nM
- Ki: 22.7 nM
